The target in one series is T1, NBD1 (Homo sapiens, UniProt P13569).
T1 construct: Purified recombinant NBD1 was produced using previously described methods; made in house
In words: Aggregation analysis using differential static light scattering (DSLS), thermal stability of NBD1 (ΔTagg). Type of series: binding. Conditions: ΔTagg versus DMSO control, NBD1 0.2 mg/ml. The gist of the method:
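Purified recombinant NBD1 at 0.2 mg/ml in Tris buffer pH7.6 with 2 mM ATP, 5 mM MgCl2, 2 mM DTT and 1% glycerol was mixed with DMSO-dissolved compounds under mineral oil. Plates were heated at 1° C. per minute to 70° C., light scattering imaged every 0.5° C.; Tagg from curve inflection, minus DMSO-control mean.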

In the next series the target is T2, CFTR (Homo sapiens, UniProt P13569, DEL508-508).
T2 construct: Primary human bronchial epithelial cells from a ΔF508 homozygous CF donor; host or cells: primary human bronchial epithelial cells (CF-HBE), ΔF508 homozygous donor
Briefly: TECC24 AUC fold over DMSO @10 μM, CFTR-mediated transepithelial chloride transport in CF-HBE cells. Conditions: test agent AUC divided by DMSO vehicle AUC, primary CF-HBE cells, ΔF508 homozygous donor, 48 hours incubation. Type of series: cell-based. The gist of the method: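 ΔF508-homozygous primary bronchial epithelial cells incubated 48 h at 36.5° C with compound (10 μM) in IL-13-containing medium, then TECC24 current-clamp recording in pH 7.4 Hepes saline with benzamil 10 μM, forskolin 10 μM, then CFTR inhibitor-172 20 μM. Equivalent Cl− current AUC between forskolin and inhibitor, expressed as fold over DMSO.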

Read-outs that look alike come from different tables or passages of the source.

T1 sequence (P13569 423-646 limits assumed): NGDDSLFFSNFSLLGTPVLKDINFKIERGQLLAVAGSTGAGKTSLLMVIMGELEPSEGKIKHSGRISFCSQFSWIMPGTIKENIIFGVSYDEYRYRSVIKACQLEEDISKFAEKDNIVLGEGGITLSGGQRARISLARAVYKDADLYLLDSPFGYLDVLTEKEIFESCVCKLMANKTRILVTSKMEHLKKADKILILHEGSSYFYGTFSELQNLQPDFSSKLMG
T2 sequence (P13569 with tags, fused parts or gaps DEL508-508): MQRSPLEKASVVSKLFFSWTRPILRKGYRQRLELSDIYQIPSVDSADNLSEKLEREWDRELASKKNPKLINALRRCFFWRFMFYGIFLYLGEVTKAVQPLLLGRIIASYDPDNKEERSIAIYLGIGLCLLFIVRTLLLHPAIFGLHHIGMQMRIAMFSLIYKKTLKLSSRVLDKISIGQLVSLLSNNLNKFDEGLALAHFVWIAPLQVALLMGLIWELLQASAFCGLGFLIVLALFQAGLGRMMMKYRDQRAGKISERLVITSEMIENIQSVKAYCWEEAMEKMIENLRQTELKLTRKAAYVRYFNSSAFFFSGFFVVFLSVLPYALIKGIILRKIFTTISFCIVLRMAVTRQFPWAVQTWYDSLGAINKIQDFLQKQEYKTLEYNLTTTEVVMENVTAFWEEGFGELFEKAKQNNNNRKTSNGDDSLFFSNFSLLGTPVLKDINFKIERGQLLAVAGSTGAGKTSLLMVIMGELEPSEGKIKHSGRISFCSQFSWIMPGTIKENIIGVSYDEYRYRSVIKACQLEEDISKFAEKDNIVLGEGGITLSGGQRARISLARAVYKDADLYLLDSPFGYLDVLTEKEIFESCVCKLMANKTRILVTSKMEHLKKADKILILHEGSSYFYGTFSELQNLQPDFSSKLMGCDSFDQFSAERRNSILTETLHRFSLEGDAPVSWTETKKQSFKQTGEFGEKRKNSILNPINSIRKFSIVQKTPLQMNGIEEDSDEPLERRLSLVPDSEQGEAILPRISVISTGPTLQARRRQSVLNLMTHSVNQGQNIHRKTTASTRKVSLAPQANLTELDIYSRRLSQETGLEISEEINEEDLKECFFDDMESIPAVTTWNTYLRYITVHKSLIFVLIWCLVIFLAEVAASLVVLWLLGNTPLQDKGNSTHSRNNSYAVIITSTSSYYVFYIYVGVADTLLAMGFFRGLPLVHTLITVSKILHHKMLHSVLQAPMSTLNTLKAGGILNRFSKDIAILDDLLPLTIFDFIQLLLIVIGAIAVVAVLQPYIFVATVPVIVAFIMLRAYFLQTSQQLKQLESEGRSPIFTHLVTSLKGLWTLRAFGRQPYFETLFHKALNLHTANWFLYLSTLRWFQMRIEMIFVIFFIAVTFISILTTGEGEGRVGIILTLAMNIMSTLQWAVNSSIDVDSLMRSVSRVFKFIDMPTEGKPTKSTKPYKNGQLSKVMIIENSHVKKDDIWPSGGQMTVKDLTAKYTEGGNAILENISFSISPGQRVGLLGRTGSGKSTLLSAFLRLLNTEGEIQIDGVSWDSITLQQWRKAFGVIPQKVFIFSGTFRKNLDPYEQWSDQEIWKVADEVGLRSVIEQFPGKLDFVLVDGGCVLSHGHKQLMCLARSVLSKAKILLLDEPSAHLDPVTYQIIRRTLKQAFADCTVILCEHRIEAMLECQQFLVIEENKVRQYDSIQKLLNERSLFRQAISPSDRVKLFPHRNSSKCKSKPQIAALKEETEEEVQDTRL

`C=CS(=O)(=O)CC(C)(C)CCC[C@](C)(c1cccc(C[C@H](C)C(=O)OC)c1)c1nc(-c2cc(Oc3cc4cc[nH]c4c(F)c3F)ccc2F)n(C)n1` registered a ring closure, isolated yield (the molecule shown is the open-chain precursor, cc_pd bond, 20-membered ring, Pd(OAc)2/Cu(OAc)2, DMF/DMSO 9:1, 1.36 mM, 70.0 °C) of 20%. `CCOC(=O)CCc1cccc(C2CCCC(C)(C)CSCCc3c(c(F)cc4[nH]ccc34)Oc3ccc(F)c(c3)-c3nn2cc3C#N)c1` (stereo not shown) came in with a ring closure, isolated yield (from CCOC(=O)CCc1cccc(C(O)CCCC(C)(C)CSCCc2c(Oc3ccc(F)c(-c4n[nH]cc4C#N)c3)c(F)cc3[nH]ccc23)c1, other bond, 18-membered ring, cyanomethylenetributylphosphorane, 1,4-dioxane, 40.9 mM, 150.0 °C, 0.67 h) of 46%.

As to `COC(=O)/C1=C\c2c(c(F)cc3[nH]ccc23)Oc2cccc(c2)-c2ccn(n2)C(c2cccc(Br)c2)CCCC(C)(C)CS1(=O)=O` (stereo not shown), under “from COC(=O)CS(=O)(=O)CC(C)(C)CCCC(c1cccc(Br)c1)n1ccc(-c2cccc(Oc3c(F)cc4[nH]ccc4c3C=O)c2)n1, other bond, 18-membered ring, piperidine/rest truncated, toluene, 3.5 mM, 100.0 °C”, the ring closure, isolated yield is 43%. `COC(=O)[C@@H](C)Cc1cccc([C@@]2(C)CCCC(C)(C)CS(=O)(=O)/C=C/c3c(c(F)c(F)c4[nH]ccc34)Sc3ccc(F)c(c3)-c3nc2nn3C)c1` displayed a ring closure, isolated yield (from C=CS(=O)(=O)CC(C)(C)CCC[C@](C)(c1cccc(C[C@H](C)C(=O)OC)c1)c1nc(-c2cc(Sc3c(F)c(F)c4[nH]ccc4c3Br)ccc2F)n(C)n1, cc_pd bond, 18-membered ring, Pd(PtBu3)2/Et3N, toluene, 9.7 mM, 120.0 °C, 4.0 h) of 80%. In the case of `COC(=O)[C@@H](C)Cc1cccc([C@@]2(C)CCCC(C)(C)CS(=O)(=O)/C=C/c3c(c(F)cc4[nH]ccc34)Sc3ccc(F)c(c3)-c3nc2nn3C)c1`, the ring closure, isolated yield (from C=CS(=O)(=O)CC(C)(C)CCC[C@](C)(c1cccc(C[C@H](C)C(=O)OC)c1)c1nc(-c2cc(Sc3c(F)cc4[nH]ccc4c3Br)ccc2F)n(C)n1, cc_pd bond, 18-membered ring, Pd(PtBu3)2/Et3N, toluene, 25.9 mM, 120.0 °C, 2.5 h) was determined as 69%. On to `COC(=O)[C@H](C)Cc1cccc(C2(C)CCCC(C)(C)CS(=O)(=O)/C=C/c3c(c(F)cc4c3ccn4S(=O)(=O)c3ccc(C)cc3)Oc3ccc(F)c(c3)-c3ccn2n3)c1` (stereo partly shown), for which, under “cc_pd bond, 18-membered ring, Pd(PtBu3)2/Et3N, toluene, 0.65 mM, 100.0 °C”, the ring closure, isolated yield came out at 11%. As for `COC(=O)[C@H](C)Cc1cccc(C2(C)CCCC(C)(C)CS(=O)(=O)C=Cc3c(c(F)cc4[nH]ccc34)Oc3ccc(F)c(c3)-c3nc2nn3C)c1` (stereo partly shown), for the setting “from C=CS(=O)(=O)CC(C)(C)CCCC(C)(c1cccc(C[C@@H](C)C(=O)OC)c1)c1nc(-c2cc(Oc3c(F)cc4[nH]ccc4c3Br)ccc2F)n(C)n1, cc_pd bond, 18-membered ring, Pd(PtBu3)2/second reagent truncated, toluene, 8.15 mM, 2.0 h”, the ring closure, isolated yield came to 48%. Regarding `COC(=O)[C@H](C)Cc1cccc([C@@]2(C)CCCC(C)(C)CS(=O)(=O)/C=C/c3c(c(F)c(F)c4[nH]ccc34)Oc3ccc(F)c(c3)-c3nc2nn3C)c1`, the ring closure, isolated yield (from C=CS(=O)(=O)CC(C)(C)CCC[C@](C)(c1cccc(C[C@@H](C)C(=O)OC)c1)c1nc(-c2cc(Oc3c(F)c(F)c4[nH]ccc4c3Br)ccc2F)n(C)n1, cc_pd bond, 18-membered ring, Pd(PtBu3)2/Et3N, toluene, 10.8 mM, 120.0 °C, 3.5 h) was found to be 68%. For `COC(=O)[C@H](C)Cc1cccc([C@@]2(C)CCCC(C)(C)CS(=O)(=O)/C=C/c3c(c(F)c(F)c4[nH]ccc34)Sc3ccnc(c3)-c3nc2nn3C)c1`, for the setting “cc_pd bond, 18-membered ring, Pd(PtBu3)2/Et3N, toluene, 21.3 mM, 120.0 °C”, the ring closure, isolated yield turned out to be 56%. Consider `COC(=O)[C@H](C)Cc1cccc([C@@]2(C)CCCC(C)(C)CS(=O)(=O)C=Cc3c(c(F)cc4[nH]ccc34)Oc3ccnc(c3)-c3nc2nn3C)c1`, for which, where the note is “from C=CS(=O)(=O)CC(C)(C)CCC[C@](C)(c1cccc(C[C@@H](C)C(=O)OC)c1)c1nc(-c2cc(Oc3c(F)cc4[nH]ccc4c3Br)ccn2)n(C)n1, cc_pd bond, 18-membered ring, Pd(PtBu3)2/Et3N, toluene, 2.74 mM, 120.0 °C, 4.0 h”, the ring closure, isolated yield worked out at 64%. For the setting “from Cn1nc(C(OCCCCS(C)(=O)=O)c2cccc(CCCO)c2)nc1-c1cc(Oc2c(F)cc3c(ccn3COCc3ccccc3)c2C=O)ccc1F, other bond, 18-membered ring, NaH, DMF, 19.4 mM”, `Cn1nc2nc1-c1cc(ccc1F)Oc1c(F)cc3c(ccn3COCc3ccccc3)c1/C=C/S(=O)(=O)CCCCOC2c1cccc(CCCO)c1` (stereo not shown) came in with a ring closure, isolated yield of 26%. For the molecule `Cn1nc2nc1-c1cc(ccc1F)Oc1c(F)cc3c(ccn3S(=O)(=O)c3ccccc3)c1Cn1cc(cn1)C(C)(C)CSCCC2(C)c1cccc(Br)c1` (stereo not shown), the ring closure, isolated yield (from Cn1nc(C(C)(CCSCC(C)(C)c2cn[nH]c2)c2cccc(Br)c2)nc1-c1cc(Oc2c(F)cc3c(ccn3S(=O)(=O)c3ccccc3)c2CO)ccc1F, other bond, 19-membered ring, cyanomethylenetributylphosphorane, toluene, 14.0 mM, 110.0 °C, 4.0 h) is 37%. In turn, `O=Cc1c(Oc2ccc(F)c(-c3ncc(C(CCCCCCS(=O)(=O)CC(=O)O)c4cccc(I)c4)[nH]3)c2)c(F)cc2[nH]ccc12` (stereo not shown) showed a ring closure, isolated yield (the molecule shown is the open-chain precursor, other bond, 19-membered ring, piperidine/AcOH, toluene, 2.7 mM, 100.0 °C) of 10%. Regarding `[2H]C([2H])([2H])n1nc2nc1-c1cc(ccc1F)Oc1c(F)cc3[nH]ccc3c1C=C(C(=O)OCC)S(=O)(=O)CCCCCC2(C)c1cccc(OCC(=O)OCC)c1` (stereo not shown), the ring closure, isolated yield (from [2H]C([2H])([2H])n1nc(C(C)(CCCC(C)(C)CS(=O)(=O)CC(=O)OCC)c2cccc(OCC(=O)OCC)c2)nc1-c1cc(Oc2c(F)cc3[nH]ccc3c2C=O)ccc1F, other bond, 18-membered ring, piperidine/AcOH, toluene, 2.6 mM, 110.0 °C) was determined as 52%. Consider `C[C@@H](Cc1cccc([C@@]2(C)CCCC(C)(C)CS(=O)(=O)CCc3c(c(F)cc4[nH]ccc34)[S+]([O-])c3cccc(c3)-c3nc2co3)c1)C(=O)O` (stereo partly drawn) [Compound 294, (2S)-3-[3-[(6R)-22-fluoro-6,10,10-trimethyl-12,12,24-trioxo-3-oxa-12λ6,24λ4-dithia-19,30-diazapentacyclo[23.3.1.12,5.015,23.016,20]triaconta-1(29),2(30),4,15,17,20,22,25,27-nonaen-6-yl]phenyl]-2-methyl-propanoic Acid], for which, on NBD1, the “DSLS 3D (100 μM ΔT)” value is “C (a value greater than 10 °C and less than or equal to 25 °C is marked “C”)”. Also, at CFTR, the “TECC (AUC, 10 μM)” value was “A (a TECC value less than 12 is marked “A”)”. On to `Cn1nc2nc1-c1cc(ccc1F)Oc1c(F)cc3[nH]ccc3c1CCS(=O)(=O)CCCCOC2c1cccc(CCCO)c1` (stereo not shown) [Compound 296, 3-[3-(22,28-Difluoro-3-methyl-12,12-dioxo-7,24-dioxa-12lambda6-thia-3,4,19,30-tetrazapentacyclo[23.3.1.^12,5.0^15,23.0^16,20]triaconta-1(29),2(30),4,15(23),16(20),17,21,25,27-nonaen-6-yl)phenyl]propan-1-ol], for which the “DSLS 3D (100 μM ΔT)” value at NBD1 was “A (an ΔTagg value less than or equal to 5 °C is marked “A”)”. In addition, the “TECC (AUC, 10 μM)” value on CFTR is recorded as “A (a TECC value less than 12 is marked “A”)”. As for `Cn1nc2nc1-c1cc(ccc1F)Oc1c(F)cc3[nH]ccc3c1CCS(=O)(=O)CCCCOC2c1cccc(CCC(=O)O)c1` (stereo not shown) [Compound 297, 3-[3-(22,28-Difluoro-3-methyl-12,12-dioxo-7,24-dioxa-12λ6-thia-3,4,19,30-tetrazapentacyclo[23.3.1.12,5.015,23.016,20]triaconta-1(29),2(30),4,15(23),16(20),17,21,25,27-nonaen-6-yl)phenyl]propanoic Acid], at NBD1, the “DSLS 3D (100 μM ΔT)” value is “B (a value above 5 °C and less than or equal to 10 °C is marked “B”)”. For the same molecule, the “TECC (AUC, 10 μM)” value at CFTR is given as “A (a TECC value less than 12 is marked “A”)”.

In the case of “Diastereomer 1 of methyl 3-methoxy-2-(3-((R,1^4Z,5E)-2^6,4^6,4^7-trifluoro-1^1,9,9,13-tetramethyl-4^1-(methylsulfonyl)-7,7-dioxido-1^1H,4^1H-3,7-dithia-4(5,4)-indola-1(5,3)-triazola-2(1,3)-benzenacyclotridecaphan-5-en-13-yl)benzyl)propanoate”, where the note is “cc_pd bond, 18-membered ring, chloro[(tBu3P)(2-aminobiphenyl-2-yl)Pd(II)]/tBu3P-HBF4/Cy2NMe, toluene, 16.8 mM, 120.0 °C”, the ring closure, isolated yield is 68%. “methyl (2R)-3-[3-[(14E)-23,29-difluoro-7,11,11-trimethyl-13,13-dioxo-20-(p-tolylsulfonyl)-25-oxa-13 6-thia-5,6,20-triazapentacyclo[24.3.1.02,6.016,24.017,21]triaconta-1(30),2,4,14,16,18,21,23,26,28-decaen-7-yl]phenyl]-2-methyl-propanoate” came in with a ring closure, isolated yield (cc_pd bond, 17-membered ring, Pd(PtBu3)2/Et3N, toluene, 0.65 mM, 100.0 °C) of 23%.
